Assay type in all cases: biochemical
Assay [1] addresses T1, bovine milk xanthine oxidase (Bos taurus, UniProt P80457). The experiment in a line: Capacity to sustain oxidation of xanthine by xanthine oxidase in the absence of oxygen, spectrophotometric. Further details: host or cells: bovine milk. The settings on record: 50 μM hydroxyguanidine, 50 μM xanthine, 0.05 units/ml xanthine oxidase, anaerobic, pH 7.5, 20° C., blank subtracted. The protocol: Capacities of a series of hydroxyguanidine to sustain the oxidation of xanthine by xanthine oxidase in the absence of oxygen. The capacities of various hydroxyguanidines to sustain the oxidation of xanthine was assayed by using a spectrophotometric method. In this method bovine milk xanthine oxidase was injected to a Helma® sealable cuvette for anaerobic application thereby creating 1 ml of a reaction mixture that contained reagents as follows: 50 μM of a hydroxyguanidine, 50 μM xanthine, 0.05 units/ml bovine milk xanthine oxidase, 50 mM Tris and 1.5 mM EDTA; the pH of the reaction mixture being 7.5, and the temperature 20° C. Anaerobic conditions were assured by pre-gassing all solutions used for 5-10 min, with nitrogen. The rate of formation of uric acid was monitored spectrophotometrically by measuring the increase in absorbance at 295 nm (the absorption maximum for uric acid) at intervals. The relative capacities of the hydroxyguanidines to sustain oxidation of xanthine were estimated from the derivative of the initial linear phase of the curves. To obtain blank readings an equal volume of the solvent of the hydroxyguanidine (water) was added to the reaction mixture in separate experiments and the initial rate of absorbance change was substracted from the rate readings of the tested hydroxyguanidine.
Exemplary initial rates for the rate of the support of the oxidation of xanthine obtained by assaying the exemplary hydroxyguanidines listed above by the method in the present example are furthermore given in Table 2: […]

Another assay addresses xanthine oxidase (Bos taurus, UniProt P80457). The experiment in a line: Inhibition of superoxide radical formation by xanthine oxidase, EPR with DMPO. Conditions: 100 μM guanoxabenz, 100 μM xanthine, 0.04 units/ml xanthine oxidase, 50 μM DMPO. The protocol: Capacity of hydroxyguanidines to inhibit the formation of superoxide radicals by xanthine oxidase in the presence of oxygen. The detection of the spin adducts of superoxide formed by xanthine oxidase and xanthine reaction was performed by using a Bruker ER200D-SRC EPR spectrometer equipped with an ER4105ST double cavity and the spin trap agent DMPO, by essentially using the approach described by Britigan et al. (1990). In brief, reaction mixtures of total volumes of 0.5 ml were prepared by adding to a plastic tubes, in the listed order, reagents that gave final concentrations as follows: 50 mM Tris HCl, 1.5 mM EDTA, 100 μM xanthine, 100 μM guanoxabenz, 0.04 units/ml xanthine oxidase and 50 μM DMPO, pH 7.5. As a control served an identical reaction mixture except that guanoxabenz had been omitted. The solutions were immediately transferred to standard flat cells for aqueous samples and spectra were recorded at room temperature. Spectrometer settings were as follows: microwave power 3.99 mW; modulation amplitude 1.028 G; time constant 10.24 ms; modulation frequency 100 kHz; receiver gain, 5×10^4. In FIG. 6 is shown an exemplary recording from these tests. […] This additional signal was due to a contaminant corresponding to “nitric oxide” that was released from the disposable laboratory plastic used in the preparation of the samples (see Buettner et al., 1991).

Assay [2] has as its target T1, bovine milk xanthine oxidase. The experiment in a line: Oxidation of xanthine to uric acid by xanthine oxidase in absence and presence of oxygen, spectrophotometric. Further details: host or cells: bovine milk. Conditions: 50 μM guanoxabenz, 50 μM xanthine; both in the absence of oxygen (nitrogen) and in the presence of 20% oxygen. The protocol: Capacity of hydroxyguanidines to sustain oxidation of xanthine by xanthine oxidase in the absence and in the presence of oxygen. The capacity of hydroxyguanidines to sustain the oxidation of xanthine to uric acid in the absence and presence of oxygen was assayed by using a spectrophotometric method. In this method bovine milk xanthine oxidase was injected to a Helma® sealable cuvette for anaerobic applications thereby creating 1 ml of a reaction mixture that contained reagents as follows: 50 μM of a hydroxyguanidine, 50 μM xanthine, 0.05 units/ml bovine milk xanthine oxidase, 50 mM Tris and 1.5 mM EDTA; the pH of the reaction mixture being 7.5, and the temperature being 20° C. Anaerobic conditions were assured by pre-gassing all solutions used for 5-10 min, with nitrogen whereas aerobic conditions was assured by exposing the solutions to air. The rate of formation of uric acid was monitored spectrophotometrically by measuring the increase in absorbance at 295 nm (the absorption maximum for uric acid) at timed intervals. In FIG. 5 are shown examplary recordings from these tests. In this test the hydroxyguanidine was guanoxabenz.

T1 sequence (P80457 whole entry): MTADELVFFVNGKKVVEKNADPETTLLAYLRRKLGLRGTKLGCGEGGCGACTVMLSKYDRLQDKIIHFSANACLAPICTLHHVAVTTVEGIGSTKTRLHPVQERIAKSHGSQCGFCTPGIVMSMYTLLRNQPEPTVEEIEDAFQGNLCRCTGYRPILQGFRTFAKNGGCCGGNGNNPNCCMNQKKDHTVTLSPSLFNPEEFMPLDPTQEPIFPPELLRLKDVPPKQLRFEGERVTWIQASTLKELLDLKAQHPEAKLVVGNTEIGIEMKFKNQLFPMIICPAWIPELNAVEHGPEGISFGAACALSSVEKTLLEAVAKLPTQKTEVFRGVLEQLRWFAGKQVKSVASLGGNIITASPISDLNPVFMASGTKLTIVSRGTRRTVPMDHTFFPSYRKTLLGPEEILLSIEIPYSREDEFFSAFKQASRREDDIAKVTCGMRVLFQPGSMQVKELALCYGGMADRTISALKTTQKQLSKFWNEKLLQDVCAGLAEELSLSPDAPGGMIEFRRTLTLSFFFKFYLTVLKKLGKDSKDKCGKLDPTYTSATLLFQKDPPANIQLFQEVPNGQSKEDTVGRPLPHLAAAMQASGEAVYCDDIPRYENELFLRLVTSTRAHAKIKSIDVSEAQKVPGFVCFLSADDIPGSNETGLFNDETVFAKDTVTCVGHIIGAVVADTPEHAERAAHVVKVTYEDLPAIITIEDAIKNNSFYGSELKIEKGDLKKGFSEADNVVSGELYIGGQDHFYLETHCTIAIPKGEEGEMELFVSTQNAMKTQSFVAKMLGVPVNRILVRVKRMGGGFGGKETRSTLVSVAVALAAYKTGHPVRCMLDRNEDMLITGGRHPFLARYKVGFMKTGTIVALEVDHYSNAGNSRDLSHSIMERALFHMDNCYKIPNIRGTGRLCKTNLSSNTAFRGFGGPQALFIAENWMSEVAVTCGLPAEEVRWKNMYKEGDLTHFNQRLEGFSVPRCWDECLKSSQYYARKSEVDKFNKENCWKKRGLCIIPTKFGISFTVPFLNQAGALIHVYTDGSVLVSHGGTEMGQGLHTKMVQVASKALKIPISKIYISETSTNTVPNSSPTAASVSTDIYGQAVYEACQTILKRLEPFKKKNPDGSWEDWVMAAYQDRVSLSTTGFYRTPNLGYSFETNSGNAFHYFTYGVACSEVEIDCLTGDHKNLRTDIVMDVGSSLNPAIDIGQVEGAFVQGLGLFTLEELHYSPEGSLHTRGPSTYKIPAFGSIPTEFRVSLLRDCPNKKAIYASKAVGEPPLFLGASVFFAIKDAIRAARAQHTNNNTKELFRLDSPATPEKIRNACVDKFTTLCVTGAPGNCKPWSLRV
xanthine oxidase, sequence (P80457 whole entry): as above

Consider `N=C(NO)NN=Cc1c(Cl)cccc1Cl` [Guanoxabenz, 2(2,6-dichlorophenyl)methylene-N-hydroxyhydrazine carboxi-imidamide], for which, in assay [1], the “V = 1000 × (Δabs 295 nm) min^−1 (initial rate of the support of the oxidation of xanthine)” value is 40 1000 × (Δabs 295 nm) min^−1. For the same compound, at xanthine oxidase, the “reduction of the superoxide signal (EPR)” value is “about 60%”. The “rate of the formation of uric acid (absorbance at 295 nm)” value in assay [2] was “substantial increase”.

These data come from patent US6599943B1, “Use of hydroxyguanidines” (WaPharm AB, priority 1996, dated 2003).
